Laboratory results reported in US20260062422A1 (Halda Therapeutics OpCo, Inc., priority 2022, published 2026).

What was measured:
[1] = system: VCaP cells; test: Cellular growth inhibition assay for VCaP cells, CellTiter-Glo; type: cell-based, human; conditions: 72 hours treatment, CellTiter-Glo 2.0
Procedure, shortened: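 GI50 values come from four-parameter curve fits of luminescence data normalized to a zero baseline. Compound, in medium with 0.5% DMSO, was added one day after plating and left for 72 h before CellTiter-Glo 2.0 addition.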

[2] = system: T-Rex 293 cell line SC3 cells having increased expression of androgen receptor protein due to exposure to doxycycline; test: Cellular growth inhibition, T-Rex 293 SC3 cells with doxycycline (androgen receptor induced), CellTiter-Glo; type: cell-based; conditions: T-Rex 293 SC3 cells with 10 ng/mL doxycycline (increased androgen receptor expression)
Procedure, shortened: (§1)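 With DMSO (0.5%) vehicle as negative control, compounds treated SC3 cells for 72 h in medium containing charcoal-dextran FBS ± doxycycline. This T-Rex 293 clone expresses transfected wild-type AR on induction. Readout: CellTiter-Glo 2.0; GI50 by nonlinear regression.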

[3] = system: T-Rex 293 cell line SC3 cells lacking increased expression of androgen receptor protein; test: Cellular growth inhibition, T-Rex 293 SC3 cells without doxycycline, CellTiter-Glo; type: cell-based; conditions: T-Rex 293 SC3 cells not exposed to doxycycline, CellTiter-Glo 2.0
Procedure, shortened: as §1

[4] = system: T47D cells; test: Cellular growth inhibition assay for T47D cells, CellTiter-Glo; type: cell-based, human; conditions: 72 hours treatment, CellTiter-Glo 2.0 cell viability
Procedure, shortened: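 Cells are plated at 3000/well and allowed 24 h before treatment. Test compound in medium containing 0.5% DMSO is then added, with DMSO-only wells as negative control, and plates are incubated 72 h at 37 °C. ATP luminescence (CellTiter-Glo 2.0) is then fitted to four parameters to derive GI50.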

Structure (SMILES) | GI50 ([1]; Homo sapiens, VCaP, 72 h) | GI50 ([4]; Homo sapiens, T47D, 72 h) | GI50 [1] | GI50 [4] | GI50 ([2]; 72 h) | GI50 ([3]; 72 h) | GI50 ([2]; 72 hours) | GI50 ([3]; 72 hours)
Cc1sc2c(c1C)C(c1ccc(CC3CCC4(C3)CN(c3ncc(C(=O)N[C@H]5C(C)(C)[C@H](Oc6ccc(C#N)c(Cl)c6)C5(C)C)cn3)CCO4)cc1)=N[C@@H](C)c1nnc(C)n1-2 (stereo partly drawn) [Compound I-620] | – | – | < 500 nM | 500 to 1500 nM | – | – | < 500 nM | < 500 nM
Cc1sc2c(c1C)C(c1ccc(NCC3(F)CCN(c4ncc(C(=O)N[C@H]5C(C)(C)[C@H](Oc6ccc(C#N)c(Cl)c6)C5(C)C)cn4)CC3)cc1)=NC(Cc1ncco1)c1nnc(C)n1-2 (stereo partly drawn) [Compound I-634] | 500 to 1500 nM | < 500 nM | – | – | < 500 nM | > 3000 nM | – | –
Cc1sc2c(c1C)C(c1ccc(N3C4CCC3CN(c3ncc(C(=O)N[C@H]5C(C)(C)[C@H](Oc6ccc(C#N)c(Cl)c6)C5(C)C)cn3)C4)cc1)=N[C@@H](Cc1ncco1)c1nnc(C)n1-2 [Compound I-635] | < 500 nM | < 500 nM | – | – | – | – | < 500 nM | < 500 nM
Cc1sc2c(c1C)C(c1ccc(N3CCOC4(CCN(c5ncc(C(=O)N[C@H]6C(C)(C)[C@H](Oc7ccc(C#N)c(Cl)c7)C6(C)C)cn5)CC4)C3)cc1)=NC(Cc1ncco1)c1nnc(C)n1-2 (stereo partly drawn) [Compound I-647] | > 3000 nM | < 500 nM | – | – | < 500 nM | > 3000 nM | – | –
Cc1sc2c(c1C)C(c1ccc(N3CCCC(CN(C)c4ncc(C(=O)N[C@H]5C(C)(C)[C@H](Oc6ccc(C#N)c(Cl)c6)C5(C)C)cn4)C3)cc1)=N[C@@H](Cc1ncco1)c1nnc(C)n1-2 (stereo partly drawn) [Compound I-650] | 500 to 1500 nM | 500 to 1500 nM | – | – | < 500 nM | > 3000 nM | – | –
Cc1sc2c(c1C)C(c1ccc(NCCC3CCCN(c4ncc(C(=O)N[C@H]5C(C)(C)[C@H](Oc6ccc(C#N)c(Cl)c6)C5(C)C)cn4)C3)cc1)=N[C@@H](Cc1ncco1)c1nnc(C)n1-2 (stereo partly drawn) [Compound I-652] | < 500 nM | < 500 nM | – | – | < 500 nM | < 500 nM | – | –
Cc1sc2c(c1C)C(c1ccc(N[C@@H]3CCC[C@H](Nc4ncc(C(=O)N[C@H]5C(C)(C)[C@H](Oc6ccc(C#N)c(Cl)c6)C5(C)C)cn4)C3)cc1)=NC(Cc1ncco1)c1nnc(C)n1-2 (stereo partly drawn) [Compound I-653] | < 500 nM | < 500 nM | – | – | < 500 nM | < 500 nM | – | –
Cc1sc2c(c1C)C(c1ccc(N3C4CC(=O)CC3CN(c3ncc(C(=O)N[C@H]5C(C)(C)[C@H](Oc6ccc(C#N)c(Cl)c6)C5(C)C)cn3)C4)cc1)=NC(Cc1ncco1)c1nnc(C)n1-2 (stereo partly drawn) [Compound I-654] | < 500 nM | < 500 nM | – | – | – | – | < 500 nM | < 500 nM
Cc1sc2c(c1C)C(c1ccc(N[C@H]3CCCCN(c4ncc(C(=O)N[C@H]5C(C)(C)[C@H](Oc6ccc(C#N)c(Cl)c6)C5(C)C)cn4)C3)cc1)=NC(Cc1ncco1)c1nnc(C)n1-2 (stereo partly drawn) [Compound I-655] | 1500 to 3000 nM | 500 to 1500 nM | – | – | < 500 nM | > 3000 nM | – | –
Cc1sc2c(c1C)C(c1ccc(N3CC4(CCN(c5ncc(C(=O)N[C@H]6C(C)(C)[C@H](Oc7ccc(C#N)c(Cl)c7)C6(C)C)cn5)C4)C3)cc1)=NC(Cc1ncco1)c1nnc(C)n1-2 (stereo partly drawn) [Compound I-656] | < 500 nM | < 500 nM | – | – | < 500 nM | 500 to 1500 nM | – | –
Cc1sc2c(c1C)C(c1ccc(N3C[C@@H]4[C@H](C3)[C@H]4Nc3ncc(C(=O)N[C@H]4C(C)(C)[C@H](Oc5ccc(C#N)c(Cl)c5)C4(C)C)cn3)cc1)=N[C@@H](Cc1ncco1)c1nnc(C)n1-2 [Compound I-657] | < 500 nM | < 500 nM | – | – | < 500 nM | < 500 nM | – | –

The next lines start with results.

GI50 ([1]; Homo sapiens, VCaP, 72 h) | GI50 ([4]; Homo sapiens, T47D, 72 h) | GI50 [1] | GI50 [4] | Structure (SMILES) | GI50 ([2]; 72 h) | GI50 ([3]; 72 h) | GI50 ([2]; 72 hours) | GI50 ([3]; 72 hours)
< 500 nM | < 500 nM | – | – | Cc1sc2c(c1C)C(c1ccc(CC3CCC4(C3)CN(c3ncc(C(=O)N[C@H]5C(C)(C)[C@H](Oc6ccc(C#N)c(Cl)c6)C5(C)C)cn3)CCO4)cc1)=N[C@@H](C)c1nnc(C)n1-2 (stereo partly drawn) [Compound I-619] | < 500 nM | 500 to 1500 nM | – | –
< 500 nM | < 500 nM | – | – | Cc1sc2c(c1C)C(c1ccc(N3CC(CC4CN(c5ccc(C(=O)N[C@H]6C(C)(C)[C@H](Oc7ccc(C#N)c(Cl)c7)C6(C)C)nc5)C4)C3)cc1)=N[C@@H](Cc1ncco1)c1nnc(C)n1-2 [Compound I-621] | < 500 nM | < 500 nM | – | –
< 500 nM | < 500 nM | – | – | Cc1sc2c(c1C)C(c1ccc(NCC3CCN(c4ncc(C(=O)N[C@H]5C(C)(C)[C@H](Oc6ccc(C#N)c(Cl)c6)C5(C)C)cn4)CC3)cc1)=N[C@@H](Cc1ncco1)c1nnc(C)n1-2 [Compound I-636] | < 500 nM | < 500 nM | – | –
< 500 nM | < 500 nM | – | – | Cc1sc2c(c1C)C(c1ccc(N3CCCC4(CCN(c5ncc(C(=O)N[C@H]6C(C)(C)[C@H](Oc7ccc(C#N)c(Cl)c7)C6(C)C)cn5)CC4)C3)cc1)=NC(Cc1ncco1)c1nnc(C)n1-2 (stereo partly drawn) [Compound I-637] | < 500 nM | > 3000 nM | – | –
< 500 nM | < 500 nM | – | – | Cc1sc2c(c1C)C(c1ccc(NCC3CCCCN3c3ncc(C(=O)N[C@H]4C(C)(C)[C@H](Oc5ccc(C#N)c(Cl)c5)C4(C)C)cn3)cc1)=NC(Cc1ncco1)c1nnc(C)n1-2 (stereo partly drawn) [Compound I-638] | < 500 nM | < 500 nM | – | –
< 500 nM | < 500 nM | – | – | Cc1sc2c(c1C)C(c1ccc(NCC3CCN(c4ncc(C(=O)N[C@H]5C(C)(C)[C@H](Oc6ccc(C#N)c(Cl)c6)C5(C)C)cn4)C3)cc1)=NC(Cc1ncco1)c1nnc(C)n1-2 (stereo partly drawn) [Compound I-639] | < 500 nM | < 500 nM | – | –
< 500 nM | < 500 nM | – | – | Cc1sc2c(c1C)C(c1ccc(NC3CCCN(c4ncc(C(=O)N[C@H]5C(C)(C)[C@H](Oc6ccc(C#N)c(Cl)c6)C5(C)C)cn4)CC3)cc1)=NC(Cc1ncco1)c1nnc(C)n1-2 (stereo partly drawn) [Compound I-640] | < 500 nM | 500 to 1500 nM | – | –
< 500 nM | < 500 nM | – | – | Cc1sc2c(c1C)C(c1ccc(N3CCC4(CC3)CCN(c3ncc(C(=O)N[C@H]5C(C)(C)[C@H](Oc6ccc(C#N)c(Cl)c6)C5(C)C)cn3)C4)cc1)=NC(Cc1ncco1)c1nnc(C)n1-2 (stereo partly drawn) [Compound I-643] | < 500 nM | < 500 nM | – | –
< 500 nM | < 500 nM | – | – | Cc1sc2c(c1C)C(c1ccc(N3CCC4(CC3)CCN(c3ncc(C(=O)N[C@H]5C(C)(C)[C@H](Oc6ccc(C#N)c(Cl)c6)C5(C)C)cn3)CC4)cc1)=N[C@@H](Cc1ncco1)c1nnc(C)n1-2 [Compound I-645] | < 500 nM | > 3000 nM | – | –
< 500 nM | < 500 nM | – | – | Cc1sc2c(c1C)C(c1ccc(NC[C@@H]3CN(c4ncc(C(=O)N[C@H]5C(C)(C)[C@H](Oc6ccc(C#N)c(Cl)c6)C5(C)C)cn4)CCO3)cc1)=N[C@@H](Cc1ncco1)c1nnc(C)n1-2 [Compound I-646] | < 500 nM | < 500 nM | – | –
< 500 nM | < 500 nM | – | – | Cc1sc2c(c1C)C(c1ccc(N3CC[C@@H](CNc4ncc(C(=O)N[C@H]5C(C)(C)[C@H](Oc6ccc(C#N)c(Cl)c6)C5(C)C)cn4)C3)cc1)=NC(Cc1ncco1)c1nnc(C)n1-2 (stereo partly drawn) [Compound I-648] | < 500 nM | < 500 nM | – | –
< 500 nM | < 500 nM | – | – | Cc1sc2c(c1C)C(c1ccc(N[C@H]3CC[C@H](CNc4ncc(C(=O)N[C@H]5C(C)(C)[C@H](Oc6ccc(C#N)c(Cl)c6)C5(C)C)cn4)CC3)cc1)=N[C@@H](Cc1ncco1)c1nnc(C)n1-2 [Compound I-649] | < 500 nM | < 500 nM | – | –
< 500 nM | < 500 nM | – | – | Cc1sc2c(c1C)C(c1ccc(N3CCN(C4CCN(c5ncc(C(=O)N[C@H]6C(C)(C)[C@H](Oc7ccc(C#N)c(Cl)c7)C6(C)C)cn5)CC4)CC3)cc1)=NC(Cc1ncco1)c1nnc(C)n1-2 (stereo partly drawn) [Compound I-651] | < 500 nM | < 500 nM | – | –
